What was measured:
full-length NaChBac = target: T1, full-length NaChBac (Halalkalibacterium halodurans, UniProt Q9KCR8); experiment: […]+ flux assay in proteoliposomes; format: biochemical
T1 construct: gene BH1501; full-length, hexa-histidine-tagged (pET-15b), expressed in E. coli C41(DE3), purified in Cymal-5, reconstituted in POPE:POPG liposomes
T1 sequence (Q9KCR8 1-274): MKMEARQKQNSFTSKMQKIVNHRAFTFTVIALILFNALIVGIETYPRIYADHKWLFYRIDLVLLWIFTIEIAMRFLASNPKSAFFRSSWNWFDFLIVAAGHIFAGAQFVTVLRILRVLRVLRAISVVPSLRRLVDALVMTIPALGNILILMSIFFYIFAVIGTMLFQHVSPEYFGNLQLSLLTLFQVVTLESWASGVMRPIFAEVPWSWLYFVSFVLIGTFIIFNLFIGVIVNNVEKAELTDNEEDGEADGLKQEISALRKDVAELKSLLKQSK

T1-chimera = system: T2, T1-chimera; experiment: […]+ flux assay in proteoliposomes; format: biochemical, Halalkalibacterium halodurans; conditions: estimated; block at 45 min, POPE:POPG 3:1 liposomes, 450 mM NaCl inside, pH 7.5; pore blocker
T2 construct: gene NaChBac; single-chain fusion: N-terminal His6 tag, human Kv1.2 T1 domain (1-145, MTV...NEF), then NaChBac TM domain printed as 9-239 (KQN...ELT; forward primer encodes QKQN, K8 is in QKQ, so start is probably Q7), CTD removed; E. coli C41(DE3); with Potassium voltage-gated channel subfamily A member 2

Molecule `COCC(=O)O[C@]1(CCN(C)CCCc2nc3ccccc3[nH]2)CCc2cc(F)ccc2[C@@H]1C(C)C` [mibefradil] has an IC50 (full-length NaChBac) of 2000 nM and an IC50 (T1-chimera) of 2000 nM.

Reference: article PMC9303580, “The T1‐tetramerisation domain of Kv1.2 rescues expression and preserves function of a truncated NaChBac sodium channel” (Febs Letters, 2022)
